Source: ChEMBL document CHEMBL2417540, “Medicinal chemistry of nicotinamide phosphoribosyltransferase (NAMPT) inhibitors” (J Med Chem, 2013)
One block for each compound: values may come before it.

Tests used:
HCT-116 = assay: Cytotoxicity against human HCT116 cells; format: functional, cell-based
[1] = biological target: T1, Nicotinamide phosphoribosyltransferase (Homo sapiens, UniProt P43490); assay: Inhibition of NAMPT (unknown origin)
A2780 [2] = assay: Cytotoxicity against human A2780 cells; format: functional, cell-based
A2780 [3] = assay: Cytotoxicity against human A2780 cells after 72 hrs by SRB assay; format: functional, cell-based; conditions: A2780, 72 h
[4] = biological target: T1, Nicotinamide phosphoribosyltransferase; assay: Inhibition of recombinant his-tagged NAMPT (unknown origin) expressed in Escherichia coli after 30 mins
[5] = Cytotoxicity against human U87 cells by MTT assay; format: functional, cell-based, U-87MG ATCC; conditions: U-87 MG
[6] = biological target: T1, Nicotinamide phosphoribosyltransferase; assay: Inhibition of NAMPT in human U87 cells; format: cell-based, U-87MG ATCC
A2780 [7] = assay: Cytotoxicity against human A2780 cells after 72 hrs by WST-1 assay; format: functional, cell-based; conditions: A2780, 72 h
[8] = Cytotoxicity against human NYH cells after 3 weeks by clonogenic survival assay; format: functional; conditions: 504 h, read-out: LD50 (the source's name)
WIL2 = assay: Cytotoxicity against human W1L2 cells; format: functional, cell-based
[9] = biological target: T1, Nicotinamide phosphoribosyltransferase; assay: Binding affinity to NAMPT (unknown origin)
[10] = Cytotoxicity against human SH-SY5Y cells […] after 48 hrs by MTT assay; format: functional, cell-based
[11] = Half life in human; format: ADME, organism-based; conditions: in vivo
K562 = assay: Cytotoxicity against human K562 cells after 96 hrs by MTT assay; format: functional, cell-based; conditions: K562, 96 h
[12] = Solubility of the compound in water; format: physicochemical

T1 sequence (P43490 whole entry): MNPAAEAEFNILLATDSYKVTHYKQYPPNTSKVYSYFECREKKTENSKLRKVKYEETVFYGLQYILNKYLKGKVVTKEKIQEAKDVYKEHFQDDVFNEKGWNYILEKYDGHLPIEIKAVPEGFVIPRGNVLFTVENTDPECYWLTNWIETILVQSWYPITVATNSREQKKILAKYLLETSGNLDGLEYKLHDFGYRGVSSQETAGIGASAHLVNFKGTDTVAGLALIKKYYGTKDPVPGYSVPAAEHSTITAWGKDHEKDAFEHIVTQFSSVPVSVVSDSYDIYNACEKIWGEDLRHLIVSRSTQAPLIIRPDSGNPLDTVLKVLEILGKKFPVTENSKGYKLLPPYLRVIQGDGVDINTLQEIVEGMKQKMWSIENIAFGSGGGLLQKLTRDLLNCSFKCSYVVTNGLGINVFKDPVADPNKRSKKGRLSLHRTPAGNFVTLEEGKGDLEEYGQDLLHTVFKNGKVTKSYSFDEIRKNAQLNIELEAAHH

Structure (SMILES): C#CCN(Cc1cc2c(=O)n(C)c(CN3CCN(CCCN)CC3)nc2cc1Cl)c1ccc(C(=O)NCc2cccnc2)cc1
EC50 (HCT-116): 18 nM

Structure (SMILES): CC(C)=CCN(Cc1cc2c(=O)n(C)nnc2cc1Cl)c1ccc(C(=O)NCc2cccnc2)cc1
EC50 (HCT-116): 3 nM

Structure (SMILES): O=C(NCc1cccnc1)Nc1ccc(S(=O)(=O)c2ccccc2OC(F)(F)F)cc1
IC50 [1]: 1.2 nM
EC50 (A2780 [2]): 7 nM

Structure (SMILES): N#C/N=C(\NCc1ccc(S(=O)(=O)c2cccc(Cl)c2)cc1)Nc1ccncc1
EC50 (A2780 [3]): 4.1 nM

Structure (SMILES): O=C(/C=C/c1cccnc1)Nc1ccc(S(=O)(=O)c2ccccc2)cc1
EC50 (A2780 [3]): 243 nM
IC50 [4]: 3 nM

Structure (SMILES): O=C1c2cc(S(=O)(=O)O)ccc2-c2ccc(S(=O)(=O)O)cc21
EC50 [5]: 335000 nM

Structure (SMILES): Nc1c(-c2ccc3ccccc3n2)c2ccc([N+](=O)[O-])cc2c(=O)n1Cc1ccccc1
EC50 [5]: 325000 nM
IC50 [6]: < 5000 nM

Structure (SMILES): O=c1c(NCCCCCCS(=O)(=O)N(OCCN2CCOCC2)C2CCCCC2)c(Nc2ccncc2)c1=O
IC50 (A2780 [7]): 0.03 nM

Structure (SMILES): O=C(/C=C/c1cccnc1)NCCCCCCS(=O)(=O)N(CCN1CCOCC1)OCC1CCCCC1
IC50 (A2780 [2]): 0.16 nM

Structure (SMILES): N#C/N=C(\NCCCCCCC(=O)N(Cc1ccccc1)OC1CCCCC1)Nc1ccncc1
CC50 [8]: 0.02 nM

Structure (SMILES): C#CCN(Cc1cc2c(=O)n(C)c(CN3CCN(C)CC3)nc2cc1Br)c1ccc(C(=O)NCc2cccnc2)cc1
EC50 (WIL2): 0.49 nM
IC50 [1]: 0.23 nM

Kd [9]: 45000 nM
Structure (SMILES): O=C(/C=C/c1ccc[n+]([C@@H]2O[C@H](CO)[C@@H](O)[C@H]2O)c1)NCCCCC1CCN(C(=O)c2ccccc2)CC1

Structure (SMILES): Cc1ncsc1C(=O)N1CCC(CCCCNC(=O)c2cc3cnccc3[nH]2)CC1
EC50 (A2780 [3]): 1 nM

Structure (SMILES): O=C(NCCCCC1CCN(C(=O)c2ccccc2)CC1)c1cc2ccncc2s1
EC50 (A2780 [3]): 1.2 nM

Structure (SMILES): O=C(c1ccccc1)N1CCC(CCCCn2cc(/C=C/c3cccnc3)nn2)CC1
IC50 [10]: 3000 nM

Structure (SMILES): O=C(NCCCCCCS(=O)(=O)N(OCCN1CCOCC1)C1CCCCC1)NCc1cccnc1
IC50 (A2780 [2]): 0.89 nM

Structure (SMILES): N#CN=C(NCCCCCCOc1ccc(Cl)cc1)Nc1ccncc1 [CHS-828]
half-life [11]: 3 h
CC50 [8]: 1.7 nM

Structure (SMILES): O=C(/C=C/c1cccnc1)NCCCCC1CCN(C(=O)c2ccccc2)CC1 [DAPORINAD]
CC50 [8]: 1.5 nM
IC50 (K562): 7.2 nM

solubility [12]: ≤ 97 mg/mL
Structure (SMILES): COCCOCCOCCOCCOC(=O)OC[n+]1ccc(N/C(=N/C#N)NCCCCCCOc2ccc(Cl)cc2)cc1.[Cl-] [TEGLARINAD CHLORIDE]
